In patent publication US11584712B2, “Alkylamine-substituted perthiocarbamates as dual precursors to hydropersulfide and carbonyl sulfide” (The Johns Hopkins University, priority 2020, dated 2023):
“And” between values parts separate entries of the source, which are not always exact repeats. Equal values may be shown once. “Also recorded” adds a separate entry of the source.

Legend:
[1] = Kinetics of decomposition of 7a and formation of 2a and 9 by UPLC-MS; format: physicochemical; conditions: 7a 20 μM, HPE-IAM 1 mM, ammonium bicarbonate buffer 50 mM with DTPA
Experimental: An aliquot of the reaction mixture was withdrawn at the specified time and quenched with 1% formic acid. The curves are the calculated best fits to a single-exponential function. The pseudo-first order rate constants for 7a, 9 and 2a are 0.59±0.02, 0.57±002, and 0.58±0.03 min^−1, respectively;

[2] = test system: H9c2 cells; test: Cytotoxicity study with SYTOX Green nucleic acid stain; format: cell-based, rat; conditions: 24 h exposure, 0-150 μM
Experimental: H9c2(2-1) embryonic rat heart myoblasts were obtained from the American Type Culture Collection. Cells were grown in Dulbecco's […] (DMEM), supplemented with fetal bovine serum (FBS) 10%, penicillin 100 U/mL and streptomycin 100 μg/mL. They were propagated in T75-flasks, split before reaching 70-80% confluence (usually every day or every second day), and used within 11 passages. Cells were passaged to tissue culture treated 96-well microtiter plates at the specified density in 180 μL volumes and incubated for 24 h.
Cells were seeded at a density of 1×10^4 cells/well. […] Then, 100 μL of media containing 3 μM SYTOX™ Green nucleic acid stain (Invitrogen) was added and the cells were incubated for 2 h before fluorescence readings were obtained at 485Ex/538Em (Step 1). Finally, an additional 100 μL of media containing 3 μM SYTOX™ and 0.2% Triton X-100 was added in order to permeabilize all cells and incubated for 1 h before fluorescence values measured (Step 2). The relative % cells surviving was calculated as a 100% minus the ratio of the fluorescence value of Step 1 over Step 2 (% cells surviving=100%−(FL538 (Step 1)/FL538(Step 2)).
Cells were seeded at a density of 1×10^4 cells/well. […] The relative % cells surviving was calculated as a 100% minus the ratio of the fluorescence value of Step 1 over Step 2 (% cells surviving=100%−(FL538 (Step 1)/FL538(Step 2)).

[3] = test system: isolated-perfused murine heart; test: Isolated perfused heart (Langendorff) ischemia-reperfusion, infarct size by TTC staining; conditions: ex vivo mouse heart, 20 min global ischemia, 100 μM infused first 7 min of 90 min reperfusion; KH control 42%
Excerpt: Male C57BL/6J mice obtained from Jackson Laboratories (Bar Harbor, Me., USA) were used for all experiments. Mice were between 12 and 14 weeks of age at the time of experimentation. All animals received humane care in compliance with the “Principles of Laboratory Animal Care” formulated by the National Society for Medical Research and the “Guide for the Care and Use of Laboratory Animals” published by the US National Institutes of Health. The Animal Care and Use Committee from Johns Hopkins University approved of this study.
After anticoagulation with heparin and cervical dislocation, a thoracotomy was performed and the heart was quickly excised and placed in ice-cold Krebs-Henseleit buffer (in mmol/L: 11.1 D-glucose, 1.2 MgSO4, 1.2 KH2PO4, 4.7 KCl, 118 NaCl, 2 CaCl2), 25 NaHCO3). The aorta was cannulated, and the heart was perfused with Krebs-Henseleit buffer (oxygenated with 95% O2/5% CO2 and maintained at pH 7.4) in retrograde fashion at a constant pressure of 80 mm/Hg at 37° C. After baseline equilibration for 20 min, mouse hearts were subjected to 20 min of no-flow global ischemia followed by 90 min of reperfusion. Pharmacological postconditioning with 7b (100 μM) was performed at the onset of reperfusion for 7 min. Hearts were then reperfused for a total of 90 min. Control hearts received no pharmacological postconditioning. […]

[4] = RSSH generation in the presence of glutathione by UPLC-MS; format: physicochemical
Experimental: The reaction mixture was quenched with 1% formic acid and analyzed by UPLC-MS. Under these conditions, 42±1 μM of 2b formation is observed. RSSH-derived symmetrical dialkyl polysulfide labeled as S3 and S4 (R^1SSnSR^1, n=1-2), and unsymmetrical dialkyl polysulfide labeled as ′S2 to ′S4 (R^1SSnSR^3, n=0-2) formation are observed. 4-Hydroxyphenyl acetamide, labeled as asterisk, is used as internal standard in these experiments;

CNCCN(C)C(=O)SSC(C)(C)C(NC(C)=O)C(=O)OC (stereo not shown) [Precursor 7a, 2-(((3-acetamido-4-methoxy-2-methyl-4-oxobutan-2-yl)disulfannecarbonyl)(methyl)amino)-N-methylethan-1-aminium]
pseudo-first order rate constant of RSS-HPE-AM 9 formation [1]: 0.58 ± 0.02 min⁻¹ and 0.57 ± 002 min⁻¹
pseudo-first order rate constant of byproduct 2a formation [1]: 0.57 ± 0.02 min⁻¹ and 0.58 ± 0.03 min⁻¹
pseudo-first order rate constant of precursor decomposition [1]: 0.59 ± 0.02 min⁻¹

COC(=O)C(NC(C)=O)C(C)(C)SSC(=O)N(C)CCN (stereo not shown) [Precursor 7b, 2-(((3-acetamido-4-methoxy-2-methyl-4-oxobutan-2-yl)disulfannecarbonyl)(methyl)amino)ethan-1-aminium]
cytotoxicity toward H9c2 cells [2]: no toxicity; also recorded: not cytotoxic
infarct size [3]: 16%
byproduct 2b formation ([4]; 7b 100 μM, glutathione 500 μM, pH 7.4 ammonium bicarbonate 50 mM with DTPA, 37° C., 45 min): 42 ± 1 µM
yield of byproduct 2b ([4]; in the presence of GSH, pH 7.4): 42%
